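At the GI50, growth is halved. TGI is the concentration that stops growth completely.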
Legend:
Test in all cases: NCI tumour cell line growth inhibition, 384-well format
786-0 renal = test system: 786-0 renal
A498 renal = test system: A498 renal
A549 NSCLC = test system: A549 NSCLC
ACHN renal = test system: ACHN renal
BT-549 breast = test system: BT-549 breast
CAKI-1 renal = test system: CAKI-1 renal
COLO 205 colon = test system: COLO 205 colon
DU-145 prostate = test system: DU-145 prostate
EKVX NSCLC = test system: EKVX NSCLC
HCT-116 colon = test system: HCT-116 colon
HCT-15 colon = test system: HCT-15 colon
HL-60(TB) leukemia = test system: HL-60(TB) leukemia
HOP-62 NSCLC = test system: HOP-62 NSCLC
HOP-92 NSCLC = test system: HOP-92 NSCLC
HS 578T breast = test system: HS 578T breast
HT29 colon = test system: HT29 colon
IGROV1 ovarian = test system: IGROV1 ovarian
K-562 leukemia = test system: K-562 leukemia
KM12 colon = test system: KM12 colon
M14 melanoma = test system: M14 melanoma
MALME-3M melanoma = test system: MALME-3M melanoma
MCF7 breast = test system: MCF7 breast
MDA-MB-231 breast = test system: MDA-MB-231 breast
MDA-MB-435 melanoma = test system: MDA-MB-435 melanoma
MDA-MB-468 breast = test system: MDA-MB-468 breast
MOLT-4 leukemia = test system: MOLT-4 leukemia
NCI-H226 lung = test system: NCI-H226 lung
NCI-H23 lung = test system: NCI-H23 lung
NCI-H322M lung = test system: NCI-H322M lung
NCI-H460 NSCLC = test system: NCI-H460 NSCLC
NCI-H522 lung = test system: NCI-H522 lung
OVCAR-3 ovarian = test system: OVCAR-3 ovarian
OVCAR-4 ovarian = test system: OVCAR-4 ovarian
OVCAR-5 ovarian = test system: OVCAR-5 ovarian
OVCAR-8 ovarian = test system: OVCAR-8 ovarian
PC-3 prostate = test system: PC-3 prostate
RXF 393 renal = test system: RXF 393 renal
SF-268 CNS = test system: SF-268 CNS
SF-295 CNS = test system: SF-295 CNS
SF-539 CNS = test system: SF-539 CNS
SK-MEL-2 melanoma = test system: SK-MEL-2 melanoma
SK-MEL-28 melanoma = test system: SK-MEL-28 melanoma
SK-MEL-5 melanoma = test system: SK-MEL-5 melanoma
SK-OV-3 ovarian = test system: SK-OV-3 ovarian
SN12C renal = test system: SN12C renal
SNB-19 CNS = test system: SNB-19 CNS
SNB-75 CNS = test system: SNB-75 CNS
SR leukemia = test system: SR leukemia
SW-620 colon = test system: SW-620 colon
T-47D breast = test system: T-47D breast
TK-10 renal = test system: TK-10 renal
U251 glioblastoma = test system: U251 glioblastoma
UACC-257 melanoma = test system: UACC-257 melanoma
UACC-62 melanoma = test system: UACC-62 melanoma
UO-31 renal = test system: UO-31 renal

## CN[C@@H](C)C(=O)N[C@H](C(=O)N1CCC[C@H]1C(=O)Nc1sc(-c2ncco2)nc1-c1ccccc1)C1CCCCC1
786-0 renal
  GI50: 6.69 µM
  TGI: 19.9 µM
A498 renal
  GI50: 5.13 µM
  TGI: 17.9 µM
A549 NSCLC
  GI50: 11.6 µM
  TGI: > 100 µM
ACHN renal
  GI50: 4.35 µM
  TGI: 17.2 µM
BT-549 breast
  GI50: 0.234 µM
  TGI: 2.32 µM
CAKI-1 renal
  GI50: 11.2 µM
  TGI: 23.3 µM
COLO 205 colon
  GI50: 2.05 µM
  TGI: 16 µM
DU-145 prostate
  GI50: 1.03 µM
  TGI: 10.5 µM
EKVX NSCLC
  GI50: 10.7 µM
  TGI: 32.2 µM
HCT-116 colon
  GI50: 0.43 µM
  TGI: 14.3 µM
HCT-15 colon
  GI50: 8.22 µM
  TGI: 21.4 µM
HL-60(TB) leukemia
  GI50: 0.0148 µM
  TGI: 0.584 µM
HOP-62 NSCLC
  GI50: 1.08 µM
  TGI: 2.68 µM
HOP-92 NSCLC
  GI50: 9.99 µM
  TGI: 21.8 µM
HS 578T breast
  GI50: 0.609 µM
  TGI: 15.4 µM
HT29 colon
  GI50: 5.63 µM
  TGI: 18.1 µM
IGROV1 ovarian
  GI50: 10.5 µM
  TGI: 24.5 µM
K-562 leukemia
  GI50: 2.18 µM
  TGI: 16.6 µM
KM12 colon
  GI50: 1.21 µM
  TGI: 10.5 µM
M14 melanoma
  GI50: 8.12 µM
  TGI: 20.8 µM
MALME-3M melanoma
  GI50: 0.0256 µM
  TGI: 0.74 µM
MCF7 breast
  GI50: 0.16 µM
  TGI: 1.18 µM
MDA-MB-231 breast
  GI50: 0.14 µM
  TGI: 0.909 µM
MDA-MB-435 melanoma
  GI50: 1.6 µM
  TGI: 13.5 µM
MDA-MB-468 breast
  GI50: 0.476 µM
  TGI: 5.23 µM
MOLT-4 leukemia
  GI50: 4.34 µM
  TGI: 14.9 µM
NCI-H226 lung
  GI50: 5.52 µM
  TGI: 27.5 µM
NCI-H23 lung
  GI50: 0.159 µM
  TGI: 1.28 µM
NCI-H322M lung
  GI50: 13.5 µM
  TGI: 39.6 µM
NCI-H460 NSCLC
  GI50: 7.4 µM
  TGI: 21.3 µM
NCI-H522 lung
  GI50: 0.0966 µM
  TGI: 1.08 µM
OVCAR-3 ovarian
  GI50: 1.36 µM
  TGI: 15.5 µM
OVCAR-4 ovarian
  GI50: < 0.01 µM
OVCAR-5 ovarian
  GI50: 10.7 µM
  TGI: 34.2 µM
OVCAR-8 ovarian
  GI50: 1.02 µM
  TGI: 2.87 µM
PC-3 prostate
  GI50: 6.22 µM
  TGI: 19.8 µM
RXF 393 renal
  GI50: < 0.01 µM
  TGI: 0.0402 µM
SF-268 CNS
  GI50: 10.4 µM
  TGI: 22.3 µM
SF-295 CNS
  GI50: 3.72 µM
  TGI: 14.7 µM
SF-539 CNS
  GI50: 3.44 µM
  TGI: 17.3 µM
SK-MEL-2 melanoma
  GI50: < 0.01 µM
  TGI: 1.04 µM
SK-MEL-28 melanoma
  GI50: 2.64 µM
  TGI: 16.7 µM
SK-MEL-5 melanoma
  GI50: 0.114 µM
  TGI: 1.38 µM
SK-OV-3 ovarian
  GI50: < 0.01 µM
  TGI: 0.064 µM
SN12C renal
  GI50: 11 µM
  TGI: 23.6 µM
SNB-19 CNS
  GI50: 18.6 µM
  TGI: 61.4 µM
SNB-75 CNS
  GI50: 2.52 µM
  TGI: 11.1 µM
SR leukemia
  GI50: 0.182 µM
  TGI: 0.592 µM
SW-620 colon
  GI50: 3.66 µM
  TGI: 17.9 µM
T-47D breast
  GI50: 16.7 µM
  TGI: 30.5 µM
TK-10 renal
  GI50: 11.3 µM
  TGI: 24.4 µM
U251 glioblastoma
  GI50: 5.48 µM
  TGI: 19.3 µM
UACC-257 melanoma
  GI50: 2.27 µM
  TGI: 13.3 µM
UACC-62 melanoma
  GI50: 0.781 µM
  TGI: 10.9 µM
UO-31 renal
  GI50: 15.9 µM
  TGI: 29.6 µM
